Experimental data published in US12234507B2, “Compositions and methods for targeted masking of autofluorescence” (10x Genomics, Inc., priority 2022, dated 2025).

Experiments:
[1] = system: fresh frozen (FrF) mouse brain tissues (dentate gyrus, cortex); test: Targeted masking of autofluorescence, in situ imaging of fresh frozen mouse brain tissue sections
Procedure: (§1) Formalin-fixed paraffin embedded (FFPE) human brain tissues and fresh frozen (FrF) mouse brain tissues were obtained for this example. The samples were sectioned to 10 μm thickness and transferred to Superfrost® Plus slides. The FFPE human brain tissues were treated multiple times with Histo-Clear® and citrate buffer to remove the embedded paraffin. The FrF mouse brain samples were fixed using 3.7% formaldehyde for 5 minutes. The slides were then incubated with nucleic acid probes targeting genes of interest. The nucleic acid probes were allowed to hybridize overnight in hybridization buffer at 37° C. The next day, the samples were washed using wash buffers to remove excess or unbound probes. The probes were then ligated in the presence of ligase, RNAase inhibitor and ligation buffer for 2 hours. Subsequently, the ligation products were amplified overnight using polymerases and amplification buffers. The samples were then stained using fluorescently labelled probes. Finally, the quenching agent compound 1A was dissolved in DMF (at 18 mM), diluted with 70% ethanol to provide solutions of compound 1A at concentrations of 3.6 mM, 1.8 mM, and 0.9 mM. These solutions were applied to the samples prior to imaging. Once imaged, the fluorescently labelled probes were stripped using a denaturing agent and contacted with additional detectable probes before the next imaging round. In this manner, multiple rounds of stripping, re-probing, and imaging of signals associated with the fluorescently labelled probes, were performed without any additional quenching steps.
(§2) To improve the binding of compound 1A to tissue moieties responsible for autofluorescence, the FrF mouse brain tissues were treated with dithiothreitol (DTT, 50 mM) and 2% TEA for 10 minutes before quenching with compound 1A. DTT reduces disulfide bridges in the tissues thereby increasing the thiol content for improved binding of compound 1A. Alternatively, the tissues were treated with a combination of 2,5-dioxopyrrolidin-1-yl 3-oxo-1-(pyridin-2-yldisulfaneyl)-7,10,13,16-tetraoxa-4-azanonadecan-19-oate (PEG4-SPDP), a derivative of succinimidyl 3-(2-pyridyldithio) propionate (SPDP) comprising an internal tetraoligoethylene linker, and DTT, to convert amines to thiols and reduce any disulfide bridges to increase thiol content. For the reduction only treatment, the tissues were treated with DTT (50 mM for 10 minutes). […] FIGS. 3A and 3C depict the fluorescence for the dentate gyrus and cortex portions prior to quenching, in which punctuate fluorescence signals were associated with rolling circle amplification products, and amorphous background fluorescence was detected.

FFPE human brain tissues [2] = test: Targeted masking of autofluorescence, in situ imaging of FFPE human brain tissue
Procedure: as §1
as §2, with “minutes). For the conversion of amines to thiols and subsequent reduction, the tissues were treated first with PEG4-SPDP (10 mM) for 10 minutes, followed by treatment with DTT (50 mM) and compound 1A (0.9 mM). PEG4-SPDP is a multifunctional crosslinker for protein conjugation via amine-to-amine or amine-to-sulfhydryl crosslinks that contain a 4-unit polyethylene glycol (PEG) group and a reducible (cleavable) disulfide bond. The tissues were then washed prior to or after staining. […] Results were compared to the tissues incubated with a native thiol targeting group (control group).” for “minutes).”
Further studies were conducted on FFPE human brain tissue that were enriched for binding moieties in the tissue via treatment with DTT or with DTT and PEG4-SPDP. FIG. 5 depicts the signal-to-noise ratio increased post-quenching with DTT/Compound 1A and PEG4-SPDP-DTT/Compound 1A, and was maintained after stripping with DMSO treatment and rehybridization of fluorescent probes.

FFPE human brain tissues [3] = test: Masking autofluorescence of FFPE human brain tissue with quencher analogues; details: for background signal compared to unquenched tissues: quencher 1 mM 30 min, 50 mM DTT, all four channels 488, 532, 590, 647 nm (FIGS. 7A-7D); for detected object local mean signal-to-noise ratio: quencher 1 mM, 590 nm and 647 nm (FIGS. 8B, 8C)
Procedure: Formalin-fixed paraffin embedded (FFPE) human brain tissues were treated using the protocol described in Example 1 and further treated using 50 mM DTT for 30 minutes. Next, the tissues were incubated with the quenchers (1 mM) for 30 minutes prior to staining. Staining was performed using nucleic acid probes targeting an anchor sequence which is present within all of the RCPs and targeting epithelial genes-rp1p0, malat1, and actb. The tissues were stained with the quencher compounds 1A, 2A, 1B, 3B, a combination of quenchers 1A and 3B, or a commercial quencher (Table 1, for comparison).

[4] = system: FFPE human tonsil tissues; test: Autofluorescence masking over multiple cycles in FFPE human tonsil tissue
Procedure: Formalin-fixed paraffin embedded (FFPE) human tonsil and liver tissues were obtained for this example. The samples were sectioned to 5 μm thickness and transferred to Superfrost® Plus slides. The samples were treated multiple times with Histo-Clear® and citrate buffer to remove the embedded paraffin and incubated overnight with nucleic acid probes targeting epithelial genes. The next day, the samples were washed with wash buffers to remove excess or unbound probes. The probes were then ligated in the presence of ligase, RNAase inhibitor and ligation buffer for 2 hours. Subsequently, the ligation products were amplified overnight using polymerases and amplification buffers. The samples were then stained using fluorescently labelled probes. Prior to staining, the samples with treated with DTT (1 mM) for 10 minutes and quenchers with different concentrations of the compound 1A (0.1 mM, 0.5 mM, and 0.8 mM). Images of control samples without compound 1A treatment were obtained for comparison. Samples were imaged in two field of views (FOVs) to control for photo bleaching. Once imaged, the fluorescently labelled probes were stripped using a denaturing agent and contacted with additional detectable probes before the next imaging round. In this manner, multiple rounds of stripping, re-probing, and imaging of signals associated with the fluorescently labelled probes, were performed without any additional quenching steps.

[5] = stripping of fluorescently labeled probes and rehybridization
[6] = PEG4-SPDP-DTT/Compound 1A (FIG. 5)

COc1cc(/N=N/c2ccc([N+](=O)[O-])cc2)c(OC)cc1/N=N/c1ccc(N(C)CCCN2C(=O)C=CC2=O)cc1 [Compound 1A]
staining of the tissues with the targeting chemistry ([1]; FrF mouse brain, DTT or PEG4-SPDP/DTT enrichment, compared to native thiol control group): efficiently stain | background signal ([1]; after stripping with DMSO, treatment with compound 1A and rehybridization with additional probes): significantly reduced | background in dentate gyrus (DG) and cortex samples ([1]; mouse brain, quenched vs prior to quenching (FIGS. 3A-3D)): efficiently reduced | autofluorescence quenching effect after stripping [1, 5]: retained | background in human brain tissues (FFPE human brain tissues [2]): efficiently reduced | signal to background ratio after 5 cycles of stripping and rehybridizing (FFPE human brain tissues [2]; 488 nm, 590 nm, 532 nm and 647 nm, single quenching application (FIGS. 6A-6D)): maintained | signal-to-noise ratio after stripping with DMSO and rehybridization of fluorescent probes (FFPE human brain tissues [2]; DTT/Compound 1A (FIG. 5)): maintained | signal-to-noise ratio post-quenching (FFPE human brain tissues [2]; DTT/Compound 1A (FIG. 5)): increased | signal-to-noise ratio after stripping with DMSO and rehybridization of fluorescent probes (FFPE human brain tissues [2]; [6]): maintained | signal-to-noise ratio post-quenching (FFPE human brain tissues [2]; [6]): increased | retention of quencher on tissues through multiple detection cycles (FFPE human brain tissues [2]; covalently bound, no repeated quenching steps): retained | autofluorescence quenching effect after stripping (FFPE human brain tissues [2]; [5]): retained | background signal compared to unquenched tissues (FFPE human brain tissues [3]): significant reduction | detected object local mean signal-to-noise ratio (FFPE human brain tissues [3]): improved | detected object density ([4]; 0.1, 0.5 and 0.8 mM, 488 nm (FIGS. 10A-10C)): increase | detected object local signal-to-noise ratio ([4]; 0.1, 0.5 and 0.8 mM, 488 nm (FIGS. 11A-11C)): Increased | background signal compared to unquenched tonsil tissues ([4]; 0.1, 0.5 and 0.8 mM, 488 nm, cycles 5-7 vs 1-3, multiple cycles of stripping and reprobing (FIGS. 9A-9C)): Significant reduction | background noise across all four wavelengths measured ([4]; 488, 532, 590, 647 nm (data for additional wavelengths not shown)): reduced background noise was maintained | signal intensity ([4]; 488 nm, after quenching): reduced | detected objected signal intensity above local background ([4]; quenched tissue, 488 nm, exposure time increased from 10 ms to 30 ms (FIG. 12)): significantly improved

COc1cc(/N=N/c2c(Cl)cc([N+](=O)[O-])cc2Cl)c(OC)cc1/N=N/c1ccc(N(C)CCCN2C(=O)C=CC2=O)cc1 [Compound 2A]
background signal compared to unquenched tissues (FFPE human brain tissues [3]): significant reduction | detected object local mean signal-to-noise ratio (FFPE human brain tissues [3]): improved

COc1cc(/N=N/c2ccc([N+](=O)[O-])cc2)c(OC)cc1/N=N/c1ccc(N(C)CCCC(=O)ON2C(=O)CCC2=O)cc1 [Compound 1B]
background signal compared to unquenched tissues (FFPE human brain tissues [3]): significant reduction | detected object local mean signal-to-noise ratio (FFPE human brain tissues [3]): improved

CCN(CC)c1ccc2nc3ccc(/N=N/c4ccc(N(C)CCCC(=O)ON5C(=O)CCC5=O)cc4)cc3[n+](-c3ccccc3)c2c1 [Compound 3B]
background signal compared to unquenched tissues (FFPE human brain tissues [3]): significant reduction
